# Laboratory results as given in patent US20160108381A1, “DNA POLYMERASES AND MUTANTS THEREOF” (LIFE TECHNOLOGIES CORPORATION, priority 2001, published 2016).
# What was measured:
# Assay in all cases: Steady-state kinetics, DNA- and RNA-dependent polymerase activity
# Assay type in all cases: biochemical
# [1] = target: T1, Caldibacillus cellulovorans CompA.2 (CA2) DNA polymerase, SEQ ID NO:16 ([Caldibacillus] cellulovorans, UniProt Q6X9S0)
# T1 sequence (Q6X9S0 with tags, fused parts or gaps): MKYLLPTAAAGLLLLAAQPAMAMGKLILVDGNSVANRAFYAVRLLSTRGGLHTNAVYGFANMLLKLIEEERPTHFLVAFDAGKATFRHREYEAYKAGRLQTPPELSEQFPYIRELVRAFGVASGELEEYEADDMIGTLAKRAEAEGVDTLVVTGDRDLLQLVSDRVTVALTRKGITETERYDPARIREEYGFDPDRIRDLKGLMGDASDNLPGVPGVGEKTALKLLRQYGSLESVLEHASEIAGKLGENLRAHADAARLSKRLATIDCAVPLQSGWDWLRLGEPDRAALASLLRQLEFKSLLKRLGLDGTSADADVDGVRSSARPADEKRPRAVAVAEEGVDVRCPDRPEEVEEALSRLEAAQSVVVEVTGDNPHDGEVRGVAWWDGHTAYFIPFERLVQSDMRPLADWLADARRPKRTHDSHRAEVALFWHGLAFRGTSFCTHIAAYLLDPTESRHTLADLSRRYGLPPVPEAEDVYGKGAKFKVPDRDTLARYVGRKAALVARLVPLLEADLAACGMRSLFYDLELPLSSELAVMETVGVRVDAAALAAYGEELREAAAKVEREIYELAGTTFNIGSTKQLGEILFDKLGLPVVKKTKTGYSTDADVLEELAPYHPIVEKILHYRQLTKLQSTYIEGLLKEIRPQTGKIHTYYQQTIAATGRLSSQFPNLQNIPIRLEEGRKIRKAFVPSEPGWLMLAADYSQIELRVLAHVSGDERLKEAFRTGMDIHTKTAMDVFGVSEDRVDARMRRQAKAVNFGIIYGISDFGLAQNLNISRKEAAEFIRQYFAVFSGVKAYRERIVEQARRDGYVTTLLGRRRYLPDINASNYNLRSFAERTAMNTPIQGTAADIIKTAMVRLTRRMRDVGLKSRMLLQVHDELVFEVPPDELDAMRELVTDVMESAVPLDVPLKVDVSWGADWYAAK
# Experimental: (§1) Purification of CA2, B.EA1, Rt41A, Dth, Tok13B, Tok7B, and Rt69B DNA polymerase. E. coli cells (BL21SI, Invitrogen Corporation, Carlsbad, Calif.) bearing the plasmid pET26B with the gene for CA2, B.EA1, Rt41A, or Dth DNA polymerase were grown in 2.8-1 Fembach flasks in LB broth containing no salt and 50 μg/ml kanamycin at 37° C. After the culture reached an A590 of 1.2, expression of DNA polymerase was induced with 0.3 M NaCl for 3 hr. Cells were harvested by centrifugation and stored at −70° C. E. coli cells (BL21AI) bearing the plasmid pET14B with the gene for Tok13B, Tok7B, or RT69B DNA polymerase were grown in 2.8-1 Fembach flasks in LB broth containing 50 μg/ml ampicillin at 37° C. After the culture reached an A590 of 1.0, expression of DNA polymerase was induced by the addition of 0.2% arabinose for 3 hr. Cells were harvested by centrifugation and stored at −70° C.
# (§2) Steady-state kinetic measurements.
# (§3) The catalytic rate constant kcat and the Michaelis constant KM were determined for both the DNA-dependent and RNA-dependent polymerase activities for the polypeptides of the invention and these parameters were compared to those of Tne DNA polymerase enzyme and […]™ II reverse transcriptase. […]
# [2] = target: SuperScript II reverse transcriptase (SSII, SS II RT), a modified M-MLV reverse transcriptase (Moloney murine leukemia virus isolate Shinnick, UniProt P03355)
# Experimental: (§4) Thermotoga neapolitana (Tne) DNA polymerase mutated to eliminate 3′ to 5′ and 5′ to 3′ exonuclease activity was cloned, engineered and purified as described in U.S. Pat. No. 6,306,588. SuperScript II reverse transcriptase (SS II RT) was from Invitrogen Corporation, Carlsbad, Calif.
# as §2, §3
# [3] = target: T2, Thermotoga neapolitana (Tne) DNA polymerase, mutated to eliminate 3′ to 5′ and 5′ to 3′ exonuclease activity (Thermotoga neapolitana, UniProt B9K7T2)
# T2 construct: mutated to eliminate 3'-5' and 5'-3' exonuclease activity as in US 6,306,588 (recalled, unsure: D137A and D323A)
# Experimental: as §4, §2, §3
# [4] = target: T3, Bacillus caldolyticus EA1.3 (B.EA1) DNA polymerase, SEQ ID NO:20 ([Bacillus] caldolyticus, UniProt Q6X9S1); conditions: Table 40; dTTP; 55 °C
# T3 sequence (Q6X9S1 with tags, fused parts or gaps): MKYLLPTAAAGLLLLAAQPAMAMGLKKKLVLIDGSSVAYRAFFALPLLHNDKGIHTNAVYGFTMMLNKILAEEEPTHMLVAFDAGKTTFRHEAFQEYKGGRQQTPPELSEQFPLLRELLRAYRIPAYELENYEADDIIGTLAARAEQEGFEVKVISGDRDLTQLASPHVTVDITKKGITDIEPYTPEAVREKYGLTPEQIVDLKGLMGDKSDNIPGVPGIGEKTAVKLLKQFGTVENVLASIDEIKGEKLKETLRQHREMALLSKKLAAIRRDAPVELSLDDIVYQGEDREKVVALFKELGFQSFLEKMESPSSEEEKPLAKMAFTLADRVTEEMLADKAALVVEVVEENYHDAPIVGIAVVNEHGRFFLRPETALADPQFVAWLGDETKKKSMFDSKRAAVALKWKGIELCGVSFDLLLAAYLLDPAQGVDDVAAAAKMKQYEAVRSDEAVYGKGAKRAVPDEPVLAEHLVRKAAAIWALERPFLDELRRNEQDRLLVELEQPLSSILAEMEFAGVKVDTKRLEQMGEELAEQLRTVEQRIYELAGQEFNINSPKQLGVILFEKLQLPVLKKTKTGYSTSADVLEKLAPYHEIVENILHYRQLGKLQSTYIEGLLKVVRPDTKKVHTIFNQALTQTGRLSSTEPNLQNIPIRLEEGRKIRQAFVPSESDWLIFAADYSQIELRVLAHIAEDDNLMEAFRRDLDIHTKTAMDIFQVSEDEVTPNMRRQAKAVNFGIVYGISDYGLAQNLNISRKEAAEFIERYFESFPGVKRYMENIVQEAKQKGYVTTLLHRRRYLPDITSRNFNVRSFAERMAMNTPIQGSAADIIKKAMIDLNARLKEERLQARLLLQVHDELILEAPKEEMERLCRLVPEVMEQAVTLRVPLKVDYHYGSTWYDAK
# Experimental: as §1, §2
# [5] = Table 34, RNA template, 2 mM MgCl2, 45 °C per footnote
# [6] = read-out: Km RNA (dTTP), Table 34, RNA template, 2 mM MgCl2, 45 °C per footnote
# T2 sequence (B9K7T2 entry or part of it, stated change not applied): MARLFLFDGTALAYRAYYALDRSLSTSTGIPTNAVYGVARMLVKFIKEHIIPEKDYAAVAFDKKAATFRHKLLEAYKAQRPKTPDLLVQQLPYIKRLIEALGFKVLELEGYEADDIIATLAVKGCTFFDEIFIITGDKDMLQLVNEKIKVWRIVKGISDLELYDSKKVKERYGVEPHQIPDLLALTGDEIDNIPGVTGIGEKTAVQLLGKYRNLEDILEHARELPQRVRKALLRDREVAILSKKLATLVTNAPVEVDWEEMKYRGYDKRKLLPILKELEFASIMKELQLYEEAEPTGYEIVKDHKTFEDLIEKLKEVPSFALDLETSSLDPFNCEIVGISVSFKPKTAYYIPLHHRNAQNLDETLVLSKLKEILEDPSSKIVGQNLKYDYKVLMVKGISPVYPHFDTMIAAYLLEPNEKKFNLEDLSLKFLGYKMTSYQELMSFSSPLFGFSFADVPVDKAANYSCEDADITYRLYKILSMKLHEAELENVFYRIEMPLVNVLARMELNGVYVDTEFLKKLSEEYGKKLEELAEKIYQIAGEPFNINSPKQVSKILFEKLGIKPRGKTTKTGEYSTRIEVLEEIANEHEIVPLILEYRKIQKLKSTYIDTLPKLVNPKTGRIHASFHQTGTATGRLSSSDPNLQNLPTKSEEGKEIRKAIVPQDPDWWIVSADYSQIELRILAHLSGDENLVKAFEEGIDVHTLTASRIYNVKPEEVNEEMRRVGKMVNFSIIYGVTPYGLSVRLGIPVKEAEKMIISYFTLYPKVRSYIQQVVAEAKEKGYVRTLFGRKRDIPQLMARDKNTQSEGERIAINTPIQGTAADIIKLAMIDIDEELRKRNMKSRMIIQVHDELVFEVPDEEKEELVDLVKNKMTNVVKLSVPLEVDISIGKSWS
smiles,measurement,setting,value
Cc1cn([C@H]2C[C@H](O)[C@@H](COP(=O)(O)OP(=O)(O)OP(=O)(O)O)O2)c(=O)[nH]c1=O [dTTP],Kcat RNA (dTTP),[1]; [5],5 s⁻¹
same,kCAT Ratio (RNA/DNA),"[1]; Table 40, dTTP, 55 °C",0.59
same,Km,[1]; [6],17 µM
same,Kcat RNA (dTTP),[2]; [5],14.5 s⁻¹
same,kCAT Ratio (RNA/DNA),"[2]; Table 40, 37 °C, RNA-DNA with dTTP over DNA-DNA with dGTP",2.8
same,kCAT RNA-DNA,"[2]; Table 40, (rA)250•(dT) template-primer, dTTP, 37 °C, mean ± SD",45 ± 18 s⁻¹
same,Km,[2]; [6],17 µM
same,Kcat RNA (dTTP),[3]; [5],0.094 s⁻¹
same,kCAT Ratio (RNA/DNA),"[3]; Table 40, 72 °C, RNA-DNA with dTTP over DNA-DNA with dGTP",0.002
same,kCAT RNA-DNA,"[3]; Table 40, (rA)250•(dT)40, dTTP, 72 °C, mean ± SD",0.2 ± 0.04 s⁻¹
same,Km,[3]; [6],37 µM
same,kCAT Ratio (RNA/DNA),[4],0.59
